# Columns and labels:
# [1] = system: HIV-1 NL4-3 virus produced in MT4 cells; experiment: infectivity of virus particles by the CPRG method in HeLa P4 cells; type: cell-based; settings: viruses recovered after MT4 cells were exposed to 10 µM drugs
# Protocol: We used the CPRG method developed in HeLa P4 cells grown in 96-well plates to measure the infectivity of virus particles, as low levels of virus were recovered after exposure of infected MT4 cells to different drug concentrations. In this assay, expression of the LacZ gene is under the control of the HIV-1 LTR, and its level of trans-activation correlates with the level of expression of HIV-1 Tat. HeLa P4 cells were incubated with normalized amounts of virus as measured by the P24 assay, and the expression of β-galactosidase was determined by the CPRG assay (Fig. 5).
# Fig 5 Infectivity of newly formed HIV-1 particles produced in the presence of drugs. MT4 cells were infected with the NL4-3 virus. […] The infectivity of HIV-1 viruses was determined by the CPRG method. […]
# Replication of the NL4-3 virus was determined either by the ELISA technique or in HeLa-P4 cells by the CPRG method as described previously ([29]). These are HeLa CD4 LTR-lacZ cells in which the expression of lacZ is induced by the HIV transactivator Tat, allowing precise quantification of the infectivity of HIV-1. The viral titer was determined by quantifying β-galactosidase activity in HeLa-P4 lysates in a colorimetric assay based on the cleavage of chlorophenol red-β-D-galactopyranoside (CPRG) by β-galactosidase. The cytotoxicity is evaluated by the MTT assay.
# [2] = system: HIV-1 NLENG1-IRES-GFP (NL4-3-GFP) virus in MT4 cells; experiment: ex vivo HIV-1 replication assay, GFP expression by flow cytometry in infected MT4 cells (multiple cycles); type: cell-based; settings: drug 10 µM, added 36–48 h after infection, read 72 h later
# Protocol: To test this hypothesis, azelastine, lacidipine, and cilnidipine were used in an ex vivo assay to determine their effect on HIV-1 proliferation. MT4 cells were infected with NLENG1-IRES-GFP, a virus that allows for multiple cycles of infection, and the molecules were added to the medium 36–48 h after infection, before the completion of the first round of viral infection; 72 h after the drugs were added, when two rounds of HIV-1 infection were underway, the level of GFP fluorescence was determined by flow cytometry, as a marker of HIV-1 infection (Fig. 3, left panel). HIV-1 replication was inhibited in a dose-dependent manner. […]. […] At the same time, no drug toxicity was observed, as determined by the MTT assay (Fig. 3, right panel). […] The selectivity index (SI) ([24]) of the three drugs, defined as the ratio of 50% cytotoxic concentration (CC50; >20 µM) to 50% inhibitory concentration (IC50; ~5 µM), >4.
# Fig 3 Effect of the inhibitors on HIV-1 replication and cell toxicity. MT4 cells were infected with NL4-3-GFP virus. Two days after infection, inhibitors were added to the culture medium at final concentrations of 1, 3.3, or 10 µM. The final concentration of DMSO was 0.1%. Five days after infection, GFP expression was quantified by flow cytometry, and cell viability was determined by the MTT assay. NInf corresponds to non-infected cells. Six independent experiments were performed, and standard deviations are shown. A Student t-test was used to determine statistical significance compared with the control experiment with DMSO (*: P < 0.001; **: P < 0.0001).
# MT4 cell line ([26]) was maintained in RPMI 1640. HEK293T and HeLa-P4 cells ([27]) were maintained in Dulbecco’s modified Eagle medium (DMEM). All media were supplemented with Glutamax and with 10% heat-inactivated fetal calf serum (Hyclone) and 1% penicillin/streptomycin (100 units/mL) (Gibco). All media were purchased from Gibco (Life Technologies Co.). All cell lines used here were incubated at 37 °C, under 5% CO2 atmosphere. HIV-1 stocks were prepared by calcium phosphate-mediated transfection of HEK293T cells, as previously described ([22]), with shuttle vector plasmids encoding HIV-1 NL4-3 (GenBank: AF324493.1) or NLENG1-IRES-GFP ([28]). The latter vector comes from the HIV NL4-3 strain and contains a gfp-IRES-nef cassette at the nef locus. […].
# For NL4-3-GFP vectors, viral infection is followed by GFP expression (i.e., the percentage and geometric mean fluorescence intensity [MFI] of GFP^+ cells). Infectivity was estimated by flow cytometry using a FACS Celesta flow cytometer (BD Biosciences). Toxicity is also assessed by flow cytometry (side and forward scatter).
smiles,measurement,setting,value
CN1CCCC(n2nc(Cc3ccc(Cl)cc3)c3ccccc3c2=O)CC1 (centres unmarked) [azelastine],infectivity of viruses compared with wild-type viruses,[1],less than 4%
same,"GFP fluorescence, % of the value observed when DMSO was added alone",[2],15.2%
